Molecules are shown by their SMILES. Where a name gives a salt, the structure may show the parent alone. Read-outs that look alike come from different tables or passages of the source.

Data set [1] can be described thus: Degradation constant K (melt degradation performance). The class given is physicochemical. More on the design: unit not given here.
The nature of data set [2]: Solubility parameter δ of the acid.
The conditions of data set [3]: cited from earlier work.
Data set [4] in a line: Crystallinity of injection moulded articles. The class given is physicochemical. To be noted: 0.5% salt, mould 120 °C, cycling time 12 seconds, based on heat of fusion 24 Cal/g. The procedure:
The extruded product of Example 6 has been dried (120° C.) in a ventilated oven. The obtained pellets have been moulded by injection in a Buhler Rover 63 machine.
Different cycling times have been experimented.

A short description of data set [5]: ΔT = Tc(cooling) - Tn(heating), DSC. The class given is physicochemical.
A short description of data set [6]: Half-crystallisation time (t1/2), isothermal DSC. The class given is physicochemical.
Data set [7] is described as follows: Crystallisation peak temperature on heating (Tn), DSC. The class given is physicochemical. The following applies: for Tn(composition)-Tn(polyester): PET I.V. 0.73 + 1% salt, 2-roll mill 300 °C 2 min, 10 °C/minute; for Tn (16° C./min): 1% salt deposited from solution on PET. The procedure: In one such DSC technique the crystallisation peak temperature difference, Tn(composition)--Tn(polyester) is determined by measuring the crystallisation peak temperatures on heating for the composition in comparison with the polyester of the composition not containing the ionisable salt. The detailed procedure is as follows. Compositions were prepared from the polyester and the additive by mixing on a 2-roll mill at 300° C. for 2 minutes. The sample was taken from the mill and pressed into a film in a compression moulding machine. 10 mg samples of the composition were placed in a capsule, rapidly heated to 290° C. and maintained at that temperature for 1 minute. The capsule was then dropped into water to quench the polymer and prevent crystallisation. The sample was then placed in a Perkin Elmer DSC 2 machine and heated at a rate of 10° C./minute until reaching a temperature of 290° C. The crystallisation peak temperature observed on this heating cycle is recorded and compared with the value for the polyester not containing the additive.
Samples of polyethylene terephthalate (I.V. =0.73) containing 1% of the salts listed in Table 2 were prepared by compounding at 300° C. on a 2-roll mill for 2 minutes. The samples were evaluated to determine Tn(composition-Tn(polyester), the total number of end groups, the number of carboxylate groups and the number of hydroxyl and carboxyl groups.
The salts listed in Table 3 were deposited from solution on the surface of polyethylene terephthalate chip to give a concentration of 1% by weight of salt. The product was dried under vcuum at 96° C. for 3 hours. The compositions were pressed into film using a temperature of 280° C. for 1 minute. The DSC measurements were made after quenching from the melt to prevent crystallisation and using a heating rate of 16° C./minute.
1% by weight of the sodium salt of saccharin was deposited on the surface of granules of a polyethylene terephthalate homopolymer of I.V. =0.73 by evaporating an aqueous solution of the salt from the granules by drying at 96° C. under vacuum for 3 hours. The granules obtained were compression moulded into film by pressing at 280° C. for 60 second. The film was used for measurements of Tn at a heating rate of 16° C./minute.
The effect of the salts listed in Table 4 was determined by taking granules of a polymer of poly(ethylene terephthalate) homopolymer having an intrinsic viscosity of 0.73 and evaporating a solution of the salt in methanol or water from the surface of the granules by drying at 96° C. under vacuum for 3 hours. The proportions of polymer and solution used were such as to give a concentration of 1% of salt by weight of the final dry composition. The granules obtained were compression-moulded into film at 280° C. for various periods of time. The film was used for measurement of Tn as hereinbefore described.
Two samples of polyethylene terephthalate chip (I.V. =0.73) were coated from solution with 1% of the sodium salt of o-hydroxybenzoic acid and the disodium salt of the same acid respectively. After drying for 3 hours in a vacuum oven at 95° C. films were prepared by pressing the products for 1 minute at 280° C.

A further data set is described as follows: End group determination. The class given is physicochemical. On the procedure: The numbers of hydroxyl and carboxyl groups were also determined according to the procedure given in this paper.
[…] The samples were evaluated to determine Tn(composition-Tn(polyester), the total number of end groups, the number of carboxylate groups and the number of hydroxyl and carboxyl groups.

Data set [8] in a line: Degradation constant K (melt degradation performance). The class given is physicochemical. More on the design: unit not given here. The following applies: 1% salt deposited from solution on PET (Examples 13-15).
The nature of data set [9]: Degradation constant K, block copolymer. To be noted: 1% salt, 2-roll mill 270 °C 2 minutes, compared with polyester itself. The class given is physicochemical. On the procedure:
The melt degradation performance is a measure of the extent of degradation under molten conditions. A convenient method of quantifying the performance is by measuring the "K value". A method for determining this value in the molten state using an Instron Capillary rheometer is given in a paper by J. Devaux et al in Makromol. Chem. 179, 2201-2209 (1978).
This method is carried out on samples prepared by reacting the salt with the polyester on a 2 roll-mill at a temperature above the melting point of the polyester for 5 minutes and then pressing the product obtained into a 2 mm thick sheet using the same temperature for 3 minutes before cooling to room temperature. The method is described for polyethylene terephthalate but can be readily adapted for other polyesters.
(§1) The polymer used in Example 16 and 1% of the disodium salt of o-hydroxy benzoic acid were compounded on a 2-roll mill at 270° C. for 2 minutes. […] (measured at a heating rate of 10° C./minute).

Data set [10] can be described thus: End group determination, block copolymer. The class given is physicochemical. To be noted: 1% salt, 2-roll mill 270 °C 2 minutes. On the procedure: The total number of end groups in the polyester were found by determining the intrinsic viscosity of the polyester and using the correlation between I.V. and number of end groups given in Transactions of the Faraday Societ 1961, Volume 57, pages 150 to 159. The numbers of hydroxyl and carboxyl groups were also determined according to the procedure given in this paper.
as §1

A short description of data set [11]: Crystallisation peak temperature on heating (Tn), DSC, block copolymer. The class given is physicochemical. On the procedure: A block copolymer containing 5% by weight of polyethylene glycol units of molecular weight 1540 in chip form was blended with a solution of the sodium salt of o-chlorobenzoic acid to give a salt concentration of 1% by weight of the polyester. Samples were prepared for DSC analysis using the procedure of Example 15.
as §1

The mark [12] stands for this setting: 1% salt in PET, 2-roll mill 270 °C 5 min, molten state 290 °C.
Where [13] appears, read: PET I.V. 0.73 + 1% salt, 2-roll mill 300 °C 2 min.
Where [14] appears, read: 1% salt in PET, 2-roll mill 270 °C 5 min, 10 °C/minute.
Setting [15] is: 110 °C, 1% salt in PET, 2-roll mill 270 °C 5 min, after melting 1 minute at 290 °C.
The mark [16] stands for this setting: 120 °C, 1% salt in PET, 2-roll mill 270 °C 5 min, after melting 1 minute at 290 °C.
Where [17] appears, read: pressed 280 °C 1 minute, heating rate 16 °C/minute.
The mark [18] stands for this setting: 1% salt deposited from solution on PET chip, pressed 280 °C 1 minute.

In [1], `O=C([O-])c1ccc([N+](=O)[O-])cc1Cl.[Na+]` displayed a K of 39. Further, in data set [2], the “δ × pKH.sbsb.2O” value is given as 26. Further, the pKH.sbsb.2O in data set [3] (water) was 2. In addition, the crystallinity in [4] came to 40%. The same compound gave a ΔT in data set [5] of 103. In addition, in data set [6], the “t1/2 (sec) 110° C.” value came to 90 s and the “t1/2 (sec) 120° C.” value turned out to be 48 s.
In the case of `O=C(O)c1ccc(Cl)cc1Cl` [2,4-dichlorobenzoic acid], the K in data set [1] (setting [12]) is listed as 65. In addition, the “Tn(composition)-Tn(polyester)” value in data set [7] was determined as 23 °C. Further, the “δ × pKH.sbsb.2O” value in data set [2] (product for the acid) amounted to 34. In addition, in data set [3] (acid from which the salt is derived, in water), the pKH.sbsb.2O is 2.8. In “End group determination” (setting [13]), the “% of carboxylate end group” value is given as 16.7%, the “End Groups --COOH” value is 67 moles × 10^-6 g^-1, the “End Groups --OH” value was determined as 55 moles × 10^-6 g^-1 and the “End Groups Carboxylate” value was 32 moles × 10^-6 g^-1. Besides, the “End Groups Total from solution I.V.” value in the data set “End group determination” (setting [13]) was found to be 192 moles × 10^-6 g^-1. Also, the ΔT in data set [5] (setting [14]) was determined as 109 °C. For the same compound, in [6] (setting [15]), the “t1/2 (sec) 110° C.” value amounted to 60 s. Further, the “t1/2 (sec) 120° C.” value in data set [6] (setting [16]) is 35 s.
Turning to `O=C(O)c1ccco1` [Sodium salt of 2-furoic acid], the K in data set [8] is recorded as 65. Also, the “Tn (16° C./min)” value in data set [7] (setting [17]) worked out at 127 °C. Besides, in the data set “End group determination” (setting [18]), the “End Groups --COOH” value was 29 moles × 10^-6 g^-1, the “End Groups --OH” value was determined as 62 moles × 10^-6 g^-1 and the “End Groups Total from solution I.V.” value is 121 moles × 10^-6 g^-1.
Take `O=C(O)c1cccs1` [Sodium salt of 2-thiophencarboxylic acid]: the K in data set [8] came out at 15. Besides, in data set [7] (1% salt deposited from solution on PET chip, pressed 280 °C 1 minute, heating rate 16 °C/minute), the “Tn(comp.)-Tn(PET) (16° C./min)” value was determined as 29 °C. Besides, the “Tn (16° C./min)” value in data set [7] (setting [17]) was 112 °C. Moreover, in “End group determination” (setting [18]), the “End Groups --COOH” value is on record as 24 moles × 10^-6 g^-1, the “End Groups --OH” value was 59 moles × 10^-6 g^-1 and the “End Groups Total from solution I.V.” value was 145 moles × 10^-6 g^-1.
As to `O=C(O)c1ccccc1O` [ortho-ONa-benzoic acid], the K in data set [1] (setting [12]) is 24. Besides, the K value result in data set [9] is recorded as “less than that for the polyester itself”. Also, the K in data set [8] (listed as disodium salt of o-hydroxy benzoic acid) was 24. In addition, in [7] (pressed 280 °C 1 minute, heating rate 16 °C/minute, listed as disodium salt of o-hydroxy benzoic acid), the “Tn (16° C./min)” value was determined as 108 °C. Moreover, the “total number of end groups determined from the intrinsic viscosity” value in data set [10] was 137. Also, in data set [5] (setting [14]), the ΔT amounted to 110 °C. In data set [6], the “t1/2 (sec) 110° C.” value came to 70 s and the “t1/2 (sec) 120° C.” value is 49 s. In addition, in data set [11] (1% salt, 2-roll mill 270 °C 2 minutes, block copolymer, heating rate 10 °C/minute), the Tn was 100 °C.
As to `O=C(O)c1ccccc1Cl` [ortho-chlorobenzoic acid], the K in [1] (setting [12]) came to 32. The “Tn(composition)-Tn(polyester)” value in [7] was found to be 26 °C. Besides, in data set [2] (product for the acid), the “δ × pKH.sbsb.2O” value is given as 37. In [3] (water), the pKH.sbsb.2O is recorded as 3. Also, in the data set “End group determination” (setting [13]), the “% of carboxylate end group” value was 22%, the “End Groups --COOH” value amounted to 45 moles × 10^-6 g^-1, the “End Groups --OH” value turned out to be 55 moles × 10^-6 g^-1 and the “End Groups Carboxylate” value was found to be 37 moles × 10^-6 g^-1. Besides, the “End Groups Total from solution I.V.” value in the data set “End group determination” (setting [13]) was 167 moles × 10^-6 g^-1. For the same compound, the ΔT in [5] (setting [14]) stood at 108 °C. The “t1/2 (sec) 110° C.” value in data set [6] (setting [15]) is 65 s. The “t1/2 (sec) 120° C.” value in data set [6] (setting [16]) was determined as 36 s. Further, in [11] (1% salt from solution on block copolymer, heating rate 16 °C/minute), the Tn stood at 102 °C.
As to `O=C(O)c1ccccc1O` [ortho-hydroxy benzoic acid], in [1] (setting [12]), the K was determined as 26. For the same compound, the K in [8] (listed as sodium salt of o-hydroxybenzoic acid) is 26. Further, the “Tn (16° C./min)” value in [7] (pressed 280 °C 1 minute, heating rate 16 °C/minute, listed as sodium salt of o-hydroxybenzoic acid) was determined as 114 °C. For the same compound, in [5] (setting [14]), the ΔT worked out at 105 °C. For the same compound, in data set [6], the “t1/2 (sec) 110° C.” value turned out to be 80 s and the “t1/2 (sec) 120° C.” value was found to be 40 s.
With `O=C1NS(=O)(=O)c2ccccc21` [sodium salt of saccharin], in data set [8], the K came to 9. The “Tn (16° C./min)” value in data set [7] (setting [17]) amounted to 112 °C.

Source of the values: US4393178A, “Fast crystallizing polyester compositions” (priority 1979, dated 1983).
